Consider nine molecules from PubChem BioAssay (NCI).

A word on the GI50: it is the concentration that inhibits growth by half. In general, TGI refers to the concentration giving total growth inhibition. A low value points to greater sensitivity of the cells.

Values joined by “and” are separate entries in the source; they are usually repeats but may differ in a detail not shown here. Equal entries are not always repeated.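 Method: 48-hour compound exposure of cells in 96-well plates, five concentrations, linear interpolation of endpoints. The concentration for 50% growth inhibition is given as GI50. At the TGI there is no net growth.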 Some results are limits rather than exact numbers.

Holding throughout (experiment): DTP human tumour cell line panel, 48 h
The test system of assay [1] is SF-539 CNS.
Assay [2] relates to MOLT-4 leukemia.
The subject of assay [3] is OVCAR-3 ovarian.
The test system of assay [4] is CCRF-CEM leukemia.
The test system of assay [5] is 786-0 renal.
Assay [6] relates to NCI-H226 lung.
In assay [7] the test system is HOP-62 NSCLC.
Assay [8] relates to HL-60(TB) leukemia.
The subject of assay [9] is ACHN renal.
Assay [10] concerns HOP-92 NSCLC.

In the case of `Cc1ccc2c(O)c(O)cc(NC(C)CCCN)c2n1` (stereo not drawn), the GI50 is 3.83 µM in assay [1]; 2.6 µM in assay [2]; 2.12 µM in assay [3]; 3.73 µM in assay [4]; > 100 µM in assay [5]; 44.9 µM in [6]. The GI50 was 28.1 µM in [7], 10.7 µM in assay [8], > 100 µM in assay [9] and 57.5 µM in [10]. The TGI in [1] was 17.2 µM; in assay [2] it was 8.99 µM; in assay [3], 5.26 µM; in [4] it was 16.8 µM; in [5] it was > 100 µM; in assay [6] it was > 100 µM. For the same molecule, the TGI in assay [7] was > 100 µM; in [8], 37.8 µM; in assay [9], > 100 µM; in assay [10], > 100 µM.
Turning to `CCN1c2ccccc2C(Cl)(c2ccc(N(C)C)cc2)c2ccccc21`, the GI50 in assay [1] was 15.5 µM; in assay [2], 3.27 µM; in assay [3], 2.93 µM; in assay [4] it was 2.34 µM; in assay [5] it was 10.7 µM; in assay [6], 14.6 µM. Moreover, the GI50 is 4.27 µM in [7], 1.89 µM in [8], 12.4 µM in assay [9] and 2.84 µM in assay [10]. Moreover, the TGI in assay [1] is 29.2 µM; in assay [2], 15.2 µM; in assay [3], 8.53 µM; in assay [4], 17 µM; in assay [5], 22.7 µM; in [6], 34.5 µM. Also, the TGI worked out at 17.3 µM in assay [7], 4.7 µM in assay [8], 28.4 µM in assay [9] and 17 µM in assay [10].
Take `C/C(=N\NC(N)=S)C(CN(CC(C)C)CC(C)C)C(=O)Nc1ccc(C)cc1C` (stereo not drawn): the TGI in assay [1], in [2], in assay [3], in assay [4], in assay [5] and in [6] was > 100 µM throughout. In addition, the TGI in assay [7], in assay [8], in assay [9] and in [10] was > 100 µM each time.
Take `Nc1c(C(=O)Nc2ccccc2)[n+]([O-])c2ccccc2[n+]1[O-]`: the TGI in [1] was 37.3 µM; in assay [2], > 100 µM; in [3], 31.7 µM; in assay [4] it was > 100 µM; in assay [5] it was 27.1 µM; in assay [6], 76.3 µM. The TGI stood at 34.4 µM in assay [7], 90.8 µM in assay [8], 30.1 µM in [9] and 32.1 µM in assay [10].
On to `N#CCc1ncc(-c2ccc(C(F)(F)F)cc2)c(NC2CCCCCC2)n1`, for which the GI50 in [1], in [2], in assay [3], in [4], in [5] and in assay [6] was > 10 µM throughout. Moreover, the GI50 in [7], in assay [8], in assay [9] and in assay [10] was > 10 µM throughout. For the same molecule, the total growth inhibition concentration (TGI) in assay [1], in assay [2], in assay [3], in assay [4], in [5] and in assay [6] was > 10 µM each time. Moreover, the TGI in assay [7], in assay [8], in [9] and in [10] was > 10 µM throughout.
`COc1ccc2nc3cc(Cl)ccc3c(NCCCNCCC(C)O)c2c1` (stereo not drawn): the GI50 in [1] was 0.345 µM; in assay [2], 0.119 µM; in assay [3], 0.368 µM; in assay [4], 0.361 µM; in assay [5] it was 0.472 µM; in [6], 0.943 µM. The GI50 was 0.389 µM in assay [7], 1.65 µM in assay [8], 0.192 µM in [9] and 0.535 µM in assay [10]. The total growth inhibition concentration (TGI) in assay [1] came out at 1.49 µM; in assay [2], 1.58 µM; in assay [3], 1.68 µM; in assay [4], 2.61 µM; in assay [5], 1.94 µM; in assay [6], 3.11 µM. Further, the TGI in assay [7] amounted to 2.35 µM; in assay [8] it was 3.92 µM; in assay [9], 1.68 µM; in [10], 2.76 µM.
On to `CC(C)(C)C(=O)ON1N=NC2C3CC(OCc4ccccc4)(OCc4ccccc4)C(O3)C21` (stereo not drawn), for which the TGI in assay [1] is 31 µM; in assay [2], 32.2 µM; in [3] it was 35.9 µM; in assay [4], 45.8 µM; in assay [5], 36.4 µM; in [6], 40 µM. The TGI was > 100 µM in assay [7], 19 µM in assay [8], 91.5 µM in assay [9] and 27.2 µM in assay [10].
`O=C1CN(C(=O)c2ccccc2)Cc2[nH]c3ccccc3c21`: the TGI in [1], in assay [2], in assay [3], in assay [4], in [5] and in assay [6] was > 100 µM in each case. The TGI in assay [7], in [8], in [9] and in assay [10] was > 100 µM in each case.
Regarding `COc1cc2c[n+](C)c3c4ccccc4ccc3c2cc1OC` (tested in a mixture with another compound), the GI50 in [1] was 1.54 µM; in assay [2] it was 0.514 µM; in assay [3] it was 1.64 µM; in assay [4], 2.08 µM; in assay [5] it was 4.53 µM; in assay [7], 6.41 µM. Also, the GI50 in assay [8] was 4.56 µM; in [10], 5.25 µM. Besides, the TGI in [1] is 5.65 µM and 25 µM; in assay [2], 50.5 µM; in assay [3] it was 7.41 µM and 21.4 µM; in assay [4], > 70.6 µM; in [5], 39.5 µM; in assay [6], 33 µM. For the same molecule, the TGI was 49.7 µM in assay [7], > 84.2 µM in assay [8], > 100 µM in [9] and 28.6 µM in [10].
